Source: patent US11957759B1, “Rapidly accelerated fibrosarcoma (RAF) degrading compounds and associated methods of use” (Arvinas Operations, Inc., priority 2022, dated 2024)

How the values were obtained:
B-RAF V600E = biological target: T1, B-RAF V600E (Homo sapiens, UniProt P15056, V600E); experiment: Target protein degradation, assay C: T-Rex 293 cells, HA-BRAF_V600E, 384 well format; assay type: cell-based; settings: T-Rex 293 HA-BRAF_V600E cells, 24 hours, Examples 83-269; for DC50: Assay C; for Dmax: T-REx-293, Assay C
T1 construct: expressed in transfected cells; host or cells: T-Rex 293 cells (Invitrogen #R71007)
Method in brief: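 T-Rex 293 cells stably expressing doxycycline-induced (1 ng/mL) HA-BRAF V600E were treated 24 h at 37 °C with compound (300 nM–5 pM, 11 points, 0.5% DMSO). HA immunofluorescence was quantified by high-content imaging to give DC50 and Dmax (% of control); nuclei counts versus DMSO gauged toxicity.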

B-RAF G466V = biological target: T2, B-RAF G466V (Homo sapiens, UniProt P15056, G466V); experiment: Target protein degradation, assay D: T-Rex 293 cells, HA-BRAF_G466V, 384 well format; assay type: cell-based; settings: T-Rex 293 HA-BRAF_G466V cells, 24 hours, Examples 83-269; for DC50: Assay D; for Dmax: T-REx-293, Assay D
T2 construct: expressed in transfected cells; host or cells: T-Rex 293 cells (Invitrogen #R71007)
Method in brief: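 T-Rex 293 cells stably expressing doxycycline-induced (1 ng/mL) HA-BRAF G466V treated 24 h at 37 °C with PROTACs, 11-point 1:3 dilution, 300 nM to 5 pM final, 0.5% DMSO. Fixed cells immunostained for HA and imaged by high-content microscopy; DC50 and Dmax (% of control) derived, toxicity from nuclei counts versus DMSO.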

T1 sequence (P15056 whole entry V600E): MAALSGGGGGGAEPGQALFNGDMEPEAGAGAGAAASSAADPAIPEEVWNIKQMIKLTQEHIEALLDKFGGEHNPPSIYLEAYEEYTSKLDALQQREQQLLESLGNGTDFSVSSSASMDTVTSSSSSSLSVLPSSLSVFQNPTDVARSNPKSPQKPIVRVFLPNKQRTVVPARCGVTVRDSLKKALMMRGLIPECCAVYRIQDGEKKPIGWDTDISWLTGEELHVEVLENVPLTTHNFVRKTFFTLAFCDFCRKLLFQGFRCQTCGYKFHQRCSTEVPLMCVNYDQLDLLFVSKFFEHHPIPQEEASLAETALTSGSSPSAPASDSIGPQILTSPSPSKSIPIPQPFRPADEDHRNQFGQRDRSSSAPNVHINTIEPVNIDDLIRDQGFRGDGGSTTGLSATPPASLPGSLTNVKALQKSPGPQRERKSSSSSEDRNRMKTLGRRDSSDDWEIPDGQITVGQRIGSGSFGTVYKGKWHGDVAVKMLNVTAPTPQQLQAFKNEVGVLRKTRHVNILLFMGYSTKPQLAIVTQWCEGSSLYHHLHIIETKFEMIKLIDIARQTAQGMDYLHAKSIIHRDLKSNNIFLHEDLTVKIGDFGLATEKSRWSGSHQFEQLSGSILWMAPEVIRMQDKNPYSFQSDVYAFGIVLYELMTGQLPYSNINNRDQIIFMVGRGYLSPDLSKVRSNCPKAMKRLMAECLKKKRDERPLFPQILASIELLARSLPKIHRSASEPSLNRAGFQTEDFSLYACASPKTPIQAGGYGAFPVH
T2 sequence (P15056 whole entry G466V): as the sequence (P15056 whole entry V600E) above, with G466V, E600V counted along it

DC50 (B-RAF V600E)	Dmax (B-RAF V600E)	DC50 (B-RAF G466V)	Dmax (B-RAF G466V)	Structure (SMILES)
50 to 500 nM	35 to 70%	> 30 nM	–	N#Cc1c(NS(=O)(=O)N2CC[C@@H](F)C2)ccc(F)c1Oc1ccc2ncn(-c3cnc(C4(N5CCN(CC6CCN(c7ccc(NC8CCC(=O)NC8=O)cc7F)CC6)CC5)CC4)nc3)c(=O)c2c1 (stereo partly drawn) [Example 102, (3R)-N-[2-cyano-3-({3-[2-(1-{4-[(1-{4-[(2,6-dioxopiperidin-3-yl)amino]-2-fluorophenyl}piperidin-4-yl)methyl]piperazin-1-yl}cyclopropyl)pyrimidin-5-yl]-4-oxo-3,4-dihydroquinazolin-6-yl}oxy)-4-fluorophenyl]-3-fluoropyrrolidine-1-sulfonamide]
5 to 50 nM	35 to 70%	1 to 10 nM	35 to 70%	N#Cc1c(NS(=O)(=O)N2CC[C@@H](F)C2)ccc(F)c1Oc1ccc2ncn(-c3ccc(N4CCN(CC5CCN(c6ccc7c(c6)CN([C@@H]6CCC(=O)NC6=O)C7=O)CC5)CC4)cc3)c(=O)c2c1 [Example 103, (3R)-N-(2-cyano-3-{[3-(4-{4-[(1-{2-[(3R)-2,6-dioxopiperidin-3-yl]-1-oxo-2,3-dihydro-1H-isoindol-5-yl}piperidin-4-yl)methyl]piperazin-1-yl}phenyl)-4-oxo-3,4-dihydroquinazolin-6-yl]oxy}-4-fluorophenyl)-3-fluoropyrrolidine-1-sulfonamide]
5 to 50 nM	35 to 70%	1 to 10 nM	35 to 70%	Cc1c(N2CCC(CN3CCN(c4ccc(-n5cnc6ccc(Oc7c(F)ccc(NS(=O)(=O)N8CC[C@@H](F)C8)c7C#N)cc6c5=O)cc4)CC3)CC2)ccc2c1CN(C1CCC(=O)NC1=O)C2=O (stereo partly drawn) [Example 104, (3R)-N-{2-cyano-3-[(3-{4-[4-({1-[2-(2,6-dioxopiperidin-3-yl)-4-methyl-1-oxo-2,3-dihydro-1H-isoindol-5-yl]piperidin-4-yl}methyl)piperazin-1-yl]phenyl}-4-oxo-3,4-dihydroquinazolin-6-yl)oxy]-4-fluorophenyl}-3-fluoropyrrolidine-1-sulfonamide]
5 to 50 nM	35 to 70%	1 to 10 nM	≤ 35%	N#Cc1c(NS(=O)(=O)N2CC[C@@H](F)C2)ccc(F)c1Oc1ccc2ncn(-c3cnc(C4(N5CCN(CC6CN(c7ccc(C8CCC(=O)NC8=O)cc7F)C6)CC5)CC4)nc3)c(=O)c2c1 (stereo partly drawn) [Example 105, (3R)-N-(2-cyano-3-{[3-(2-{1-[4-({1-[4-(2,6-dioxopiperidin-3-yl)-2-fluorophenyl]azetidin-3-yl}methyl)piperazin-1-yl]cyclopropyl}pyrimidin-5-yl)-4-oxo-3,4-dihydroquinazolin-6-yl]oxy}-4-fluorophenyl)-3-fluoropyrrolidine-1-sulfonamide]
50 to 500 nM	35 to 70%	1 to 10 nM	≤ 35%	N#Cc1c(NS(=O)(=O)N2CC[C@@H](F)C2)ccc(F)c1Oc1ccc2ncn(-c3cnc(C4(N5CCN(CC6CCN(c7ccc(C8CCC(=O)NC8=O)cc7F)CC6)CC5)CC4)nc3)c(=O)c2c1 (stereo partly drawn) [Example 106, (3R)-N-(2-cyano-3-{[3-(2-{1-[4-({1-[4-(2,6-dioxopiperidin-3-yl)-2-fluorophenyl]piperidin-4-yl}methyl)piperazin-1-yl]cyclopropyl}pyrimidin-5-yl)-4-oxo-3,4-dihydroquinazolin-6-yl]oxy}-4-fluorophenyl)-3-fluoropyrrolidine-1-sulfonamide]
5 to 50 nM	35 to 70%	1 to 10 nM	35 to 70%	N#Cc1c(NS(=O)(=O)N2CC[C@@H](F)C2)ccc(F)c1Oc1ccc2ncn(-c3ccc(N4CCN(CC5CN(c6ccc7c(c6)CN([C@@H]6CCC(=O)NC6=O)C7=O)C5)CC4)cc3)c(=O)c2c1 [Example 107, (3R)-N-(2-cyano-3-{[3-(4-{4-[(1-{2-[(3R)-2,6-dioxopiperidin-3-yl]-1-oxo-2,3-dihydro-1H-isoindol-5-yl}azetidin-3-yl)methyl]piperazin-1-yl}phenyl)-4-oxo-3,4-dihydroquinazolin-6-yl]oxy}-4-fluorophenyl)-3-fluoropyrrolidine-1-sulfonamide]
5 to 50 nM	35 to 70%	1 to 10 nM	≤ 35%	N#Cc1c(NS(=O)(=O)N2CC[C@@H](F)C2)ccc(F)c1Oc1ccc2ncn(-c3cnc(C4(N5CCN(CC6CN(c7ccc(NC8CCC(=O)NC8=O)cc7F)C6)CC5)CC4)nc3)c(=O)c2c1 (stereo partly drawn) [Example 108, (3R)-N-[2-cyano-3-({3-[2-(1-{4-[(1-{4-[(2,6-dioxopiperidin-3-yl)amino]-2-fluorophenyl}azetidin-3-yl)methyl]piperazin-1-yl}cyclopropyl)pyrimidin-5-yl]-4-oxo-3,4-dihydroquinazolin-6-yl}oxy)-4-fluorophenyl]-3-fluoropyrrolidine-1-sulfonamide]
50 to 500 nM	35 to 70%	1 to 10 nM	35 to 70%	CCN(C)S(=O)(=O)Nc1ccc(F)c(Oc2ccc3ncn(-c4ccc(N5CCN(CC6CCN(c7ccc8c(c7)CN(C7CCC(=O)NC7=O)C8=O)CC6)CC5)cc4)c(=O)c3c2)c1C#N (centres unmarked) [Example 109, 2-[(3-{4-[4-({1-[2-(2,6-dioxopiperidin-3-yl)-1-oxo-2,3-dihydro-1H-isoindol-5-yl]piperidin-4-yl}methyl)piperazin-1-yl]phenyl}-4-oxo-3,4-dihydroquinazolin-6-yl)oxy]-6-{[ethyl(methyl)sulfamoyl]amino}-3-fluorobenzonitrile]
50 to 500 nM	35 to 70%	> 30 nM	–	CCN(C)S(=O)(=O)Nc1ccc(F)c(Oc2ccc3ncn(-c4ccc(N5CCN(CC6CCN(c7ccc(C8CCC(=O)NC8=O)cc7F)CC6)CC5)cc4)c(=O)c3c2)c1C#N (centres unmarked) [Example 110, 2-[(3-{4-[4-({1-[4-(2,6-dioxopiperidin-3-yl)-2-fluorophenyl]piperidin-4-yl}methyl)piperazin-1-yl]phenyl}-4-oxo-3,4-dihydroquinazolin-6-yl)oxy]-6-{[ethyl(methyl)sulfamoyl]amino}-3-fluorobenzonitrile]
50 to 500 nM	≤ 35%	1 to 10 nM	35 to 70%	N#Cc1c(NS(=O)(=O)N2CC[C@@H](F)C2)ccc(F)c1Oc1ccc2ncn(-c3ccc(N4CCN(CC5CCN(c6ccc7c(c6F)CN([C@H]6CCC(=O)NC6=O)C7=O)CC5)CC4)cn3)c(=O)c2c1 [Example 114, (3R)-N-(2-cyano-3-{[3-(5-{4-[(1-{2-[(3S)-2,6-dioxopiperidin-3-yl]-4-fluoro-1-oxo-2,3-dihydro-1H-isoindol-5-yl}piperidin-4-yl)methyl]piperazin-1-yl}pyridin-2-yl)-4-oxo-3,4-dihydroquinazolin-6-yl]oxy}-4-fluorophenyl)-3-fluoropyrrolidine-1-sulfonamide]
50 to 500 nM	35 to 70%	> 30 nM	–	N#Cc1c(NS(=O)(=O)N2CC[C@@H](F)C2)ccc(F)c1Oc1ccc2ncn(-c3cnc(N4CCN(c5ccc6c(c5)CN(C5CCC(=O)NC5=O)C6=O)CC4)nc3)c(=O)c2c1 (stereo partly drawn) [Example 127, (3R)-N-(2-cyano-3-{[3-(2-{4-[2-(2,6-dioxopiperidin-3-yl)-1-oxo-2,3-dihydro-1H-isoindol-5-yl]piperazin-1-yl}pyrimidin-5-yl)-4-oxo-3,4-dihydroquinazolin-6-yl]oxy}-4-fluorophenyl)-3-fluoropyrrolidine-1-sulfonamide]
